US20180289655A1, “Methods and Compositions for the Intravenous Administration of Fumarates for the Treatment of Neurological Diseases” (Biogen MA Inc., priority 2015, published 2018)
Entries after “also recorded” stand apart in the source; their conditions may differ. Counter-ions that a name gives are not always drawn.

Columns and labels:
[1] = DMF IV formulation development: solubility in solvents and excipient vehicles; format: physicochemical
Experimental: 2. […] For example, 2% DMSO (0.1 ml/kg/5 ml/kg*100%=2.0%), 10% PEG400 (1 ml/kg/5 ml/kg*50%=10%) and 20% Captisol (sulfobutyl ether cyclodextrin) (5 ml/kg/5 ml/kg*20%=20%) could be used for rodent IV formulation assumed the dosage of 5 ml/kg. 3. […] The studies were performed by making the PEG400 stock solution and diluting the solution with different vehicles (Table 16). […] 4.

[2] = 24-hour equilibrium solubility of DMF in water; format: physicochemical; conditions: thermodynamic from solid
Experimental: Samples were then filtrated at the measuring temperatures through a 0.2 μm filter unit, and the concentrations of the filtrate were determined using HPLC. The solids in equilibrium were confirmed, by FT-Raman technique, to be the same form as the starting material.

[3] = MMF exposure in malonate model 30 min after last oral dose of DMF; format: in vivo, Sprague-Dawley rats; conditions: 30 minutes after last oral dose of DMF, all doses
Experimental: The study and blank brain samples was transferred into Tissue Tubes (TT1) (purchased from Covaris, Inc) and attached to a borosilicate glass tube and placed on dry ice for a minimum of 15 minutes. The samples were pulverized using the Cryoprep System (Covaris Inc.) and transferred to glass tube prior to homogenization. For every 1 part (i.e. 100 mg) of tissue, 2 parts (i.e. 200 μL) of water with 15 mg/mL NaF was added to each glass tube. The tissues were homogenized at 4° C. using Covaris E210 for approximately 3 minutes per sample. The Covaris settings were as follows: Duty Cycle 20%, Intensity 10, and Cycles/Burst 1000. After homogenization […] acetonitrile was added to each glass tube, which was equal to the volume of water added in previously. The homogenates were homogenized with the E210 for an additional 30 sec per sample. […]
Study plasma samples were on ice. […] A 50 μL aliquot of sample (study samples, blank control, calibration standard or QC sample) was manually transferred into a 96-well plate according to a pre-determined layout. […]
The HPLC system used consisted of an Agilent 1200 binary pump with a Leap CTC PAL refrigerated autosampler. […] The instrument was equipped with TIS source in negative mode and the analyte was monitored in the MRM mode. […] The concentrations for unknown samples were calculated against Standards. […]

[4] = tested on: malonate-induced striatal lesion in rats; assay: Immunofluorescence microscopy (NeuN, GFAP) of lesioned rat brain sections; format: in vivo, Sprague-Dawley rats; conditions: DMF p.o. 100 mg/kg and vehicle
Experimental: For tissue to be analyzed by immunofluorescence, animals were anesthetized and transcardially perfused with 4% paraformaldehyde. Brains were removed and post-fixed overnight at 4° C. Tissue was then transferred to 30% sucrose in PBS. Serial 25-μM frozen sections were cut in the coronal plane and air-dried onto gelatin-coated glass slides. All tissue sections were washed in PBS and blocked with 5% normal goat serum in solution with 0.1% Triton X-100/PBS for 45 minutes at room temperature. Sections were then incubated with monoclonal anti-NeuN (1:500; Millipore, Temecula, Calif., USA) for neurons and polyclonal anti-glial fibrillary acidic protein (GFAP) (1:600) for astrocytes in blocking solution overnight at 4° C. Secondary antibody incubations were for 1 hour at room temperature. All immunofluorescence images were acquired with Openlab and Spectrum software.

[5] = Stability of DMF 20% Captisol solutions at ambient temperature (HPLC); format: physicochemical; conditions: for DMF area %: 20% Captisol
Excerpt: Samples stored at ambient temperature were pulled at predetermined time points (0, 2 and 7 days), and analyzed by HPLC. [table]

## COC(=O)/C=C/C(=O)OC [DMF, dimethyl fumarate]
[1]; 5 mg/ml DMF in 15% HPbCD, heating then cooling to room temperature, final pH 3.51
  Solution or precipitated: solution
[1]; 5 mg/ml DMF in 20% Captisol, heating then cooling to room temperature, final pH 4.71
  Solution or precipitated: clear solution could be achieved
[1]; 10% PEG400 + 0.5% HPMC
  Suitable for 5 mg/ml dosage?: No
[1]; 10% PEG400 + 0.5% HPMC + 0.2% SDS
  Suitable for 5 mg/ml dosage?: No
[1]; 10% PEG400 + 0.5% HPMC + 0.2% SDS, final concentration 2.8 mg/ml
  Solution or precipitated: precipitated
[1]; 10% PEG400 + 0.5% HPMC, final concentration 2.8 mg/ml
  Solution or precipitated: precipitated
[1]; 10% PEG400 + 1.5% Poloxamer 188
  Suitable for 5 mg/ml dosage?: No
[1]; 10% PEG400 + 1.5% Poloxamer 188, final concentration 2.8 mg/ml
  Solution or precipitated: precipitated
[1]; 10% PEG400 + 1.5% Poloxamer 237
  Suitable for 5 mg/ml dosage?: No
[1]; 10% PEG400 + 1.5% Poloxamer 237, final concentration 2.8 mg/ml
  Solution or precipitated: precipitated
[1]; 10% PEG400 + 2.0% Tween 80
  Suitable for 5 mg/ml dosage?: No
[1]; 10% PEG400 + 2.0% Tween 80, final concentration 2.8 mg/ml
  Solution or precipitated: precipitated
[1]; 10% PEG400 + 15% HPbCD
  Suitable for 5 mg/ml dosage?: Might be
[1]; 10% PEG400 + 15% HPbCD, final concentration 2.8 mg/ml
  Solution or precipitated: generated clear solutions at 2.8 mg/ml; also recorded: Clear solution
[1]; 10% PEG400 + 20% Captisol
  Suitable for 5 mg/ml dosage?: Might be
[1]; 10% PEG400 + 20% Captisol, final concentration 2.8 mg/ml
  Solution or precipitated: generated clear solutions at 2.8 mg/ml; also recorded: Clear solution
[1]; 10% PEG400 + D5W
  Suitable for 5 mg/ml dosage?: No
[1]; 10% PEG400 + D5W phosphate buffer (pH 6.0)
  Suitable for 5 mg/ml dosage?: No
[1]; 10% PEG400 + D5W phosphate buffer (pH 6.0), final concentration 2.8 mg/ml
  Solution or precipitated: precipitated
[1]; 10% PEG400 + D5W, final concentration 2.8 mg/ml
  Solution or precipitated: precipitated
[1]; 10% PEG400 + H2O
  Suitable for 5 mg/ml dosage?: No
[1]; 10% PEG400 + H2O, final concentration 2.8 mg/ml
  Solution or precipitated: precipitated
[1]; 10% PEG400 + Saline (pH 7)
  Suitable for 5 mg/ml dosage?: No
[1]; 10% PEG400 + Saline (pH 7), final concentration 2.8 mg/ml
  Solution or precipitated: precipitated
[1]; 20% Captisol, final pH 4.71
  Suitable for 5 mg/ml dosage?: Might be, 5 mg/ml solution could be
[1]; DMSO (pure solvent), organic solvent or mixture
  solubility: 23 to 29 mg/mL
[1]; PEG400, organic solvent or mixture
  solubility: 38 to 46 mg/mL
[1]; ethanol, organic solvent or mixture
  solubility: < 20 mg/mL
[1]; organic solvent or mixture, propylene Glycol (PG)
  solubility: < 20 mg/mL
[2]; 20 ° C., 24 hours
  solubility at 24 h: 2.7 mg/mL
[2]; 35 ° C., 24 hours
  solubility at 24 h: 3.5 mg/mL
[2]; 50 ° C., 24 hours
  solubility at 24 h: 5.5 mg/mL
[2]; ambient temperature
  solubility at 24 h: 2.7 mg/mL
[3]
  MMF concentration in plasma, brain and CSF: significantly higher in the plasma as compared to both, the Brain and the CSF; also recorded: dose-dependent increase in plasma, CSF and brain concentration of MMF
[4]
  Astrocytes (GFAP) near the lesion border: Astrocytes appear to survive in both vehicle and DMF treated animals
[5]; 0.2 mg/ml
  Stability of DMF in 20% Captisol solution: stable up to 2 days; also recorded: stable up to 2 d; also recorded: chemically and physically stable for 2 days
[5]; 0.2 mg/ml, 2 d
  DMF area %: 99.5 area %
[5]; 0.2 mg/ml, 7 d
  DMF area %: 97.2 area %
[5]; 0.2 mg/ml, initial
  DMF area %: 99.7 area %
[5]; 4 mg/ml, 7 d
  DMF area %: 99.4 area %
[5]; 4 mg/ml, initial
  DMF area %: 99.7 area %
